From the NIST ThermoML archive (doi:10.1016/j.fluid.2007.01.033)

Assays:
[1] = refractive index (Na D-line) (dimensionless); details: 298.15 K; 101.33 kPa; Liquid; Standard Abbe refractometry
[2] = xn = mol fraction of the nth substance listed; details: 313.15 K, Liquid

O=C=O [carbon dioxide]
313.15 K, Fluid (supercritical or subcritical phases)
Details	mass density [kg/m3]
1000 kPa	17.9
2000 kPa	37.1
3000 kPa	58.7
4000 kPa	83.5
5000 kPa	112.7
6000 kPa	148.8
7000 kPa	197.3
8000 kPa	276.7
9000 kPa	483.4
10000 kPa	627.4

COC(C)=O [methyl ethanoate]
Details	mass density [kg/m3]
298.15 K, 101.33 kPa, Liquid	927.1

Details	Normal boiling temperature [°C]	refractive index
Liquid	56.89	–
[1]	–	1.3594

COC(C)=O [methyl ethanoate] + O=C=O
mass density [kg/m3], [2]
Details	1000 kPa	2000 kPa	3000 kPa	4000 kPa	5000 kPa	6000 kPa	7000 kPa	8000 kPa	9000 kPa	10000 kPa
x2 = 0	907.9	908.9	909.7	910.9	912	913.1	914.1	915.1	916.1	917.1
x2 = 0.1	910	911.1	912.4	913.5	914.7	915.9	917	918.1	919.2	920.3
x2 = 0.2	–	913.9	915.2	916.6	917.9	919.1	920.4	921.7	922.9	924.1
x2 = 0.3	–	–	–	917.1	918.6	920.1	921.5	922.9	924.3	925.7
x2 = 0.4	–	–	–	917.4	919.2	920.9	922.7	924.3	925.9	927.5
x2 = 0.5	–	–	–	–	915.4	917.5	919.6	921.6	923.7	925.6
x2 = 0.6	–	–	–	–	–	909	912.8	915.5	918.1	920.7
x2 = 0.7	–	–	–	–	–	891.8	895.9	899.7	903.5	907
x2 = 0.8	–	–	–	–	–	–	861.5	868.2	873.8	879.5
x2 = 0.9	–	–	–	–	–	–	–	793.5	808	820.3
x2 = 0.95	–	–	–	–	–	–	–	–	734.6	759.7
